According to patent US7112593B2, “N-aryl-substituted cyclic amine derivative and medicine containing the same as active ingredient” (Eisai Co., Ltd., priority 2001, dated 2006):

Tests used:
Squalene synthase = target: T1, Squalene synthase (Rattus norvegicus, UniProt Q02769); assay: Measurement of squalene synthase inhibitive activity by using a rat liver microsome; type: biochemical; conditions: [3H]-farnesylpyrophosphoric acid
T1 construct: the obtained residue was used as a microsome fraction; from tissue; host or cells: liver microsome fraction of male Sprague-Dawley rat (8 to 9 weeks in age)
T1 sequence (Q02769 1-416): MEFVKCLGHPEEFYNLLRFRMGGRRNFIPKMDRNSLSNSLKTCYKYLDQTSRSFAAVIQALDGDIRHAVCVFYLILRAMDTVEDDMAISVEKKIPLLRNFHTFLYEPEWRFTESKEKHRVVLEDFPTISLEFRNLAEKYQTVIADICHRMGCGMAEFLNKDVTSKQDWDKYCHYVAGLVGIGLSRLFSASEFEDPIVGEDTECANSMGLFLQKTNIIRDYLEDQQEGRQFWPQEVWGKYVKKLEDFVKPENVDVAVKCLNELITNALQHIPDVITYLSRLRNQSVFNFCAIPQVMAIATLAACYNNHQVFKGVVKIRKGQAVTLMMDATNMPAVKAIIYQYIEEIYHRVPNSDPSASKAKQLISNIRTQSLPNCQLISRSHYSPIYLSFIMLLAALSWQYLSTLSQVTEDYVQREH
Procedure: Measurement of Squalene Synthase Inhibitive Activity by Using a Rat Liver Microsome
(I) The reaction was run on a scale of 500 μl. 200 μl of a solution containing 125 mM tris-hydrochloric acid (pH: 7.3), 2.5 mM magnesium chloride, 5 mM potassium fluoride and 10 mM reduction type nicotinamidoadenine dinucleotide phosphoric acid, 100 μl of the specimen solution with a 5-fold concentration, 100 μl of distilled water and 50 μl of 0.4 to 1 mg/ml rat liver microsome prepared by the following method were mixed.
(II) The above mixture was pre-incubated at 37° C. for 10 minutes and thereafter, 50 μl of 100 μM [^3H]-farnesylpyrophosphoric acid (30 mCi/mmol, NEN) was added to the mixture to start a reaction. The reaction was continued at 37° C. for 10 minutes. 1 ml of ethanol was added to the resulting mixture to terminate the reaction and then 1 ml of distilled water and 3 ml of petroleum ether were added to the reaction solution, which was then shaken for 30 minutes. The water phase was separated from the organic phase, the water phase was frozen at −70° C. in dry ice/methanol and the radio activity of the organic phase was measured using a liquid scintillator. Or the organic phase was evaporated to dryness using nitrogen gas and the residue was dissolved as a marker in 25 μl of chloroform containing squalene, farnesol and cholesterol. This sample was spotted on a TCL plate (Merck) and developed using heptane for 15 to 20 minutes. A band of squalene was cut from the plate to measure the radio activity by using a liquid scintillation counter. The data was expressed by a concentration (IC50) at which 50% of the radio activity of a control group was inhibited.
Preparation Method for Rat Liver Microsome
All the following operations were performed on ice and centrifugation was performed at 4° C. […] The protein concentration of the suspension was quantitated by the Bradford method and the suspension was adjusted to 20 mg/ml with the same solution and stored at −70° C.

rat liver cell = assay: Measurement of cholesterol biosynthesis inhibitive activity in a rat liver cell; type: cell-based; conditions: isolated male SD rat liver cells, [1-14C]acetic acid incorporation into free cholesterol
Procedure: Measurement of Cholesterol Biosynthesis Inhibitive Activity in a Rat Liver Cell
A liver cell was isolated from a male SD rat according to a usual method (collagenase perfusion method) and subjected to an experiment.
The isolated liver cells were planted in an amount of 500 μl every well on a Type collagen coated 24 well plate (cell density: 4×10^5 cell/ml). As the cell culture solution, a Williams' E medium (adjusted to pH 7.4) containing 10% FCS, 1 μM insulin, 1 μM dexamethasone, 100 units/ml penicillin and 100 μg/ml streptomycin was used. After the liver cells were incubated in a CO2 incubator for 2 hours, unattached cells were removed and the liver cells were further incubated overnight.
After the culture medium was exchanged, the specimen diluted in a 10% DMSO-90% cell culture solution was added to each well inan amount of 5 μl. DMSO (final concentration: 0.1%) was added toacontrolgroup. A [1-^14C]Aceticacid, sodiumsalt (5 μCi/well) was added to the media 10 minutes after the specimen was added, followed by culturing for further 2 hours. […]
After the development was finished, the TLC plate was subjected to iodine color development. […] This transferred image was analyzed using a BAS 2000 IP Reader and an Imaging analyzer II to measure radio activities contained in the free cholesterol fractions. […]

| SMILES | IC50 (Squalene synthase) | IC50 (rat liver cell) |
| --- | --- | --- |
| CO[C@@H]1CN(c2ccc(C#CC3(N)CCCCC3)c(Cc3ccccc3)n2)C[C@H]1O [Example 7, 1-[2-Benzyl-6-[(3R,4R)-3-hydroxy-4-methoxypyrrolidin-1-yl]-3-pyridyl]ethynylcyclohexylamine] | 0.53 nM | – |
| CO[C@H]1CN(c2ccc(C#C[C@@]3(O)CN4CCC3CC4)c(Cc3ccccc3)c2)C[C@H]1OC [Example 18, (3R)-3-[2-Benzyl-4-[(3R,4S)-3,4-dimethoxypyrrolidin-1-yl)phenyl]ethynyl-3-quinuclidinol] | – | 0.16 nM |
| CO[C@H]1C(=O)N(c2ccc(C#CC3(N)CCCCC3)c(Cc3ccccc3)n2)C[C@H]1O [Example 9, 1-[2-Benzyl-6-[(3R,4R)-4-hydroxy-3-methoxy-2-pyrrolidinon-1-yl]-3-pyridyl]ethynylcyclohexylamine] | 0.78 nM | – |
| CO[C@@H]1CN(c2ccc(C#CC3(O)CCCNC3)c(Cc3ccccc3)n2)C[C@H]1O (stereo partly drawn) [Example 1, 3-[2-Benzyl-6-[(3R,4R)-3-hydroxy-4-methoxypyrrolidin-1-yl]-3-pyridyl]ethynyl-3-piperidinol] | 1.4 nM | 0.45 nM |
